One data set concerns SNU-5 cells. The data set is described as follows: MTT cell viability (cytotoxicity). The conditions noted are these: SNU-5 cell lines, buffered aqueous solution, FIG. 15.
Data set [1] in a line: In vitro hypoxia detection by Pt—POP (epi-fluorescence microscope). To be noted: Pt—POP aqueous solution in a Petri dish. An excerpt:
For identification of hypoxic environments, Pt—POP has been used. The efficiency of Pt—POP as an oxygen sensor is shown in FIG. 16, including its effective usage for live bioimaging applications. […] The progressive phosphorescence intensity signal increase immediately after oxygen levels are decreased below 20% for the Pt—POP aqueous solution in a Petri dish should be noted. Results for this sensor in conjunction with the excellent animal model for hypoxia, C. elegans worms, are shown in FIG. 17, whereas similar results in E. coli bacteria and in D. rerio zebra fish are shown in FIGS. 18 and 19, respectively. In FIG. 18, conditions were: 18A: E. coli bacteria with 64X, DIC; 18B: E. coli bacteria with 64X, 405-520,222 g, 0.4 ms; 18C: E. coli bacteria incubated with Pt—POP 64X, 405-520,222 g, 0.4 ms; 18D: E. coli bacteria incubated with Pt—POP on 8th day 64X, 405-520,222 g, 0.4 ms. In FIG. 19, pictures were taken for stationary fish directly after injection (A) and 7 minutes after induced hypoxia (B), and for a swimming fish (C).

Data set [2] has as its target T1, Bovine Serum Albumin (BSA) (Bos taurus, UniProt P02769).
T1 construct: purchased Sigma-Aldrich
The data set can be described thus: Labelling of BSA with Pt—POP, absorbance after dialysis. To be noted: after 24 hours of dialysis. The data set is classed as binding.
From the text: A common model protein (BSA=bovine serum albumin) was labeled with Pt—POP to enable BSA differentiation, with oxygen sensitivity, in biological media.

A short description of data set [3]: Storage and solution stability.

3 molecules from patent US10253255B2, “Phosphorescent nanoparticles and their uses in biosensing and bioimaging” (University of North Texas, priority 2015, dated 2019) can be followed below.

T1 sequence (P02769 25-607): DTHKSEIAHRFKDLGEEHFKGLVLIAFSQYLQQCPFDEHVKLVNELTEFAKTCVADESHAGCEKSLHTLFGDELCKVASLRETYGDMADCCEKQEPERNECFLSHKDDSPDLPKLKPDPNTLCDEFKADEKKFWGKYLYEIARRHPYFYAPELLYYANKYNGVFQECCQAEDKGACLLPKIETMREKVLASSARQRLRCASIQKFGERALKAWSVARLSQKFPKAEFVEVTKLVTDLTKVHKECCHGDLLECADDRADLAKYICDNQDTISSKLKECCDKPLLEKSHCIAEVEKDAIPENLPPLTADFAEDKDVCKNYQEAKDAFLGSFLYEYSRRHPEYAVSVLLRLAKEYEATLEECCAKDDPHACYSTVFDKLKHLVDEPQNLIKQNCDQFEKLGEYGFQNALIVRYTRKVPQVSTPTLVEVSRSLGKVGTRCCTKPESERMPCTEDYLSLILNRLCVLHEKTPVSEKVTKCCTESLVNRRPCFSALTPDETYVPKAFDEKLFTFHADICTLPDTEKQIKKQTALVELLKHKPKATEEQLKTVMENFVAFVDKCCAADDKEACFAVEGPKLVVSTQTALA
Method for SNU-5 cells: SNU-5 cells were purchased from ATCC (cat. # CRL-5973) (American Type Culture Collection, Manassas, Va.), and maintained in Iscove's Modified Dulbecco's Medium (IMDM) (ATCC, cat. #30-2005) with 10% FBS (Fisherbrand Research Grade Fetal Bovine Serum, cat. #03-600-511) (Fisher Scientific UK Ltd., Loughborough). Cells (10,000/well) were seeded on 96-well plates and the desired particle amounts were added to the wells. The plates were incubated for an additional 24 h at 37° C. (5% CO2). After incubation, cell viability was evaluated using MTT. MTT dissolved in culture media (5 mg/mL) was added to each well (25 L/well). The cells were incubated for 4 h at 37° C. (5% CO2) after which time 0.08 M HCl in 2-propanol (100 L/well) was added. Light absorption was measured on a Synergy 2 multi-mode microplate reader (BioTek, Winooski, Vt.). The viability of the cells exposed to particles was expressed as a percentage of the viability of cells grown in the absence of particles on the same plate.
Cells were grown to ˜90% confluence in 96 well plate format in complete growth media containing 10% fetal bovine serum. PCHNPs or TPPTs in 0.1 wt % chitosan were dosed on cells at concentrations ranging from 0.5 to 200 μg/mL. Viability after 24 h of exposure was evaluated using MTT reagent and compared to healthy cells on the same plate. […]

As for `O=S(=O)([O-])c1cccc(P(c2cccc(S(=O)(=O)[O-])c2)c2cccc(S(=O)(=O)[O-])c2)c1.[Na+].[Na+].[Na+]` [TPPTS, 3,3′,3″-Phosphanetriyltris(benzenesulfonic acid) trisodium salt, reference compound], the “biological toxicity (MTT assay)” value in the data set on SNU-5 cells is on record as “benign”.

Turning to Na8[Au(TPPTS)3] [AuP], the “biological toxicity (MTT assay)” value with SNU-5 cells is reported as “benign”.

For M4[Pt2(P2O5H2)4].2H2O [Pt—POP], the “oxygen level below which phosphorescence intensity signal increases” value in data set [1] is reported as “below 20%”. Besides, the “absorbance of PBS control lower than BSA sample (binding to BSA)” value in data set [2] was “approximately 10 times”. Moreover, the stability in solution result is “dramatically enhanced from minutes to years” in data set [3] (in presence of a biocompatible polymer such as chitosan or PAN) and “long-term instability” in data set [3] (without polymer).
